Experimental data reported in the SangsterLogP compilation.

SMILES	logP
CNC12CCCCC1c1ccccc1C2 (stereo not given)	3.43
CNC12CCCCC1Cc1ccc(OC)cc12 (stereo not given)	3.54
NC12CCCCC1c1ccccc1C2 (stereo not given)	2.94
NC12CCCC1Cc1ccccc12 (stereo not given)	2.58
CNC12CC=CCC1c1ccccc1C2 (stereo not given)	3.28
CNC12CCCCC1Cc1ccccc12 (stereo not given)	3.37
CNC12CCCCC1Cc1cc(OC)ccc12 (stereo not given)	3.51
CCNC12c3ccccc3CC1CCCC2C (stereo not given)	3.8
C=C1c2ccccc2C2(NC)CCCCC12 (stereo not given)	3.79

Other lines, results leading:

logP	SMILES
1.41	CNC12CCC(CO)CC1Cc1ccccc12 (stereo not given)
1.84	CNC12CCC(CN)CC1Cc1ccccc12 (stereo not given)
3.77	CNC12CCCCCC1Cc1ccccc12 (stereo not given)
0.93	NC12CCC(CO)CC1Cc1ccccc12 (stereo not given)
3.44	CNC12c3ccccc3CC1CCCC2C (stereo not given)
2.48	CNCC1CCC2(NC)c3ccccc3CC2C1 (stereo not given)
